According to patent publication US20190352341A1, “MODIFIED PEPTIDES AND THEIR USE FOR TREATING SYSTEMIC LUPUS ERYTHEMATOSUS” (IMMUPHARMA FRANCE SA, priority 2018, published 2019):
Square brackets hold non-standard residues; d marks the D form. Peptide text beside a SMILES is read from it. Met(O) = CS(=O)CC[C@H](N)C(=O)O; pS = N[C@@H](COP(=O)(O)O)C(=O)O

Key:
[1] = Stability of the peptides at 37° C. (HPLC peak area); format: physicochemical; details: for 95% of stability (predicted): time to 95% from linear equation; for Stability (%) Linear equation: slope: y = stability %, x = days; for Stability (%): 10% mannitol
Description: The stability of the peptide SEQ ID NO: 1 in which the serine at position 10 is phosphorylated and the methionine at position 4 is oxydized (P140(MO)), and the peptide SEQ ID NO: 1 in which the serine at position 10 is phosphorylated (P140) was measured at 37° C., in a solution of 10% (v/v) mannitol. For each peptide, 3 concentrations have been tested: 200, 100 and 50 μg/mL.
At the indicated time, the integrity of P140 and P140(MO) peptides was measured in saline by high-performance liquid chromatography from the area of the peak corresponding to the intact peptide.
Stability is measured by using the HPLC peak surface.

[2] = system: MRL/lpr mice; test: Survival analysis in MRL/lpr mice; format: in vivo, mouse; details: female MRL/lpr mice, peptide intravenously from five weeks of age; NaCl control 25 weeks
Description: It has been determined that this mouse strain carries a mutation in the fas gene. Also, the MRL/lpr is a useful model to study behavioural and cognitive deficits found in autoimmune diseases and the efficacy of immunosuppressive agents [Monneaux et al., 2003, Eur. J. Immunol. 33, 287-296].
Five-week-old female MRL/lpr mice received P140 or peptide P140(MO) intravenously as described (Monneaux et al., 2003, Eur. J. Immunol. 33, 287-296). All experimental protocols were carried out with the approval of the local Institutional Animal Care and Use Committee (CREMEAS). As control, mice were injected with NaCl.
Twenty mice were used for each peptide or NaCl.
(§1) Statistical tests were performed using GraphPad Prism version 5.0. The two-way ANOVA test was used to analyze statistical significance of proteinuria differences between control and peptide-treated groups of mice. Survival of control and P140 analogue-treated female MRL/lpr mice was analyzed by the Kaplan-Meier method, and the significance of differences was determined by the log-rank test. For the other variables, statistical significance was assessed using the Student's t-test. p values less than 0.05 were considered significant.

[3] = system: MRL/lpr mice; test: Proteinuria analysis in MRL/lpr mice; format: in vivo, mouse; details: Albustix score, compared to the untreated mice
Description: Proteinuria of the above mice was measured in fresh urine using Albustix (Bayer Diagnostics) and was semi-quantitatively estimated according to a […] recommended by the manufacturer (no proteinuria=0; traces=1; 1+=2; 2+=3; 3+=4; 4+=5).
as §1

[4] = system: MRL/lpr mice; test: Cellularity analysis (peripheral blood) in MRL/lpr mice; format: in vivo, mouse; details: 100 μg/100 μL, 5 days after unique injection
Description: MRL/lpr mice were injected with 100 μg/100 μL of P140 or P140(MO) and cellularity (peripheral blood) was studied 5 days after this unique injection. The count includes all the leucocytes. In view of the low number of tested mice, a non parametric statistical test has been realised Mann-Whitney).

[5] = molecular target: T1, HSC70 protein (Bos taurus, UniProt P19120); test: Affinity of the peptides for HSC70 protein (BIAcore); format: binding, bovine
T1 construct: purchased Stressgen
T1 sequence (P19120 whole entry): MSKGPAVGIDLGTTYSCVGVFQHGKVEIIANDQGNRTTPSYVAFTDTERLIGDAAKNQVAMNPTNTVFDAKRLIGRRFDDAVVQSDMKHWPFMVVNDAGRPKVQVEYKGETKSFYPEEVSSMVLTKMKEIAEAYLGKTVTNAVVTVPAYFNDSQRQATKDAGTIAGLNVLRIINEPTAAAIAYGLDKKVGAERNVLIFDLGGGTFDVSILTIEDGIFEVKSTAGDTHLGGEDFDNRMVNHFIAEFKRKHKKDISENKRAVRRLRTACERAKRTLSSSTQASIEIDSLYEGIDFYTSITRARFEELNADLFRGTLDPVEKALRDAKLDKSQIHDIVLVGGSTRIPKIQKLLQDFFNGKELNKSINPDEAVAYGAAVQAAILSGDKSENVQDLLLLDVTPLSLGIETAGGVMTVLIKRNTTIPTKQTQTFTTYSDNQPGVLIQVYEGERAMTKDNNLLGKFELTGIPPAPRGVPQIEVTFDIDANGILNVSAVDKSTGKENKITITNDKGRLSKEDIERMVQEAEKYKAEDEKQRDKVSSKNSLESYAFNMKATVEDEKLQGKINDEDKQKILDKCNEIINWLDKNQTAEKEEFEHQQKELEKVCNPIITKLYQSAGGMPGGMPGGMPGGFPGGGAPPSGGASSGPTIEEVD
Description: BIAcore 3000 system (Biacore AB) was used to evaluate the binding of P140 peptides to HSC70 protein (Page et al., 2009, and 2011). Sensor chip CMS, surfactant P20, amine coupling kit containing N-hydroxysuccinimide (NHS) and N-ethyl-N′-dimethylaminopropyl carbodiimide (EDC), 2-(2-pyridinyldithio)ethaneamine (PDEA) and ethanolamine were from Biacore AB. Biosensor assays were performed with HBS-EP buffer as running buffer (10 mM HEPES, 150 mM NaCl, 3 mM EDTA, 0.005% surfactant P20, pH 7.4). The compounds were diluted in the running buffer. The sensor chip surface was regenerated after each experiment by injecting 10 μL of 10 mM HCl. Recombinant bovine HSC70 (Stressgen) was immobilized on flow cells of a CM5 sensor chip through its thiol groups using 35 μL PDEA in 50 mM borate buffer, pH 8.3 on the NHS/EDC-activated matrix. Then, 35 μL of HSC70 (100 μg/mL in formate buffer, pH 4.3) were injected until a response of 13,000 response units (RU) corresponding to 13 ng/mm^2 of HSC70 was immobilized. Twenty μL of a 50 mM cysteine/1 M NaCl solution was used to saturate unoccupied sites on the chip. The direct binding measurement of P140 peptides to HSC70 was carried out at 25° C. with a constant flow rate of 20 μL/min. P140 peptide and analogues were injected in the flux at different concentrations for 3 min, followed by a dissociation phase of 3 min. The kinetic parameters were calculated using the BIAeval 3.1 software on a personal computer. Analysis was performed using the simple 1:1 Langmuir binding model. The specific binding profiles were obtained after subtracting the response signal from the control empty channel and from blank-buffer injection. The fitting to each model was judged by the χ^2 value and randomness of residue distribution compared to the theoretical model.

[6] = BIAcore, 25° C., 1:1 Langmuir model, global fit

In the case of `CC[C@H](C)[C@H](NC(=O)[C@H](Cc1ccccc1)NC(=O)[C@H](C)NC(=O)[C@H](Cc1ccc(O)cc1)NC(=O)CNC(=O)[C@H](CCCNC(=N)N)NC(=O)[C@@H]1CCCN1C(=O)[C@H](CCCCN)NC(=O)CNC(=O)[C@H](COP(=O)(O)O)NC(=O)[C@H](CCCNC(=N)N)NC(=O)[C@H](CCCCN)NC(=O)[C@H](CO)NC(=O)[C@H](Cc1ccc(O)cc1)NC(=O)[C@@H](NC(=O)[C@H](CC[S+](C)[O-])NC(=O)[C@H](Cc1c[nH]cn1)NC(=O)[C@@H](NC(=O)[C@@H](N)CCCNC(=N)N)[C@@H](C)CC)C(C)C)C(=O)N[C@@H](CCC(=O)O)C(=O)N[C@@H](Cc1ccc(O)cc1)C(=O)O` (stereo partly shown) [P140(MO), RIHM(O)VYSKRS(PO3H2)GKPRGYAFIEY] (H-RIH[Met(O)]VYSKR[pS]GKPRGYAFIEY-OH), the “Stability (%) Linear equation: intercept” value ([1]; 50 μg/mL) is reported as 99.677, the “95% of stability (predicted)” value ([1]; 50 μg/mL) is reported as 2 years and the “Stability (%) Linear equation: slope” value ([1]; 50 μg/mL) is reported as “y = −0.0064x +”. The “Stability (%) Linear equation: intercept” value ([1]; 100 μg/mL) was 100.11, the “95% of stability (predicted)” value ([1]; 100 μg/mL) was 2 years + and the “Stability (%) Linear equation: slope” value ([1]; 100 μg/mL) was “y = −0.0064x +”. The “95% of stability (predicted)” value ([1]; 200 μg/mL) was “∞”, the “Stability (%)” value ([1]; 50 μg/mL, day 0) was 100% and the “Stability (%)” value ([1]; 50 μg/mL, day 20) was 100%. For the same compound, the “Stability (%)” value ([1]; 50 μg/mL, day 40) was 100%, the “Stability (%)” value ([1]; 50 μg/mL, day 100) was 99.4% and the “Stability (%)” value ([1]; 100 μg/mL, day 0) was 100%. The “Stability (%)” value ([1]; 100 μg/mL, day 20) was 99.1%, the “Stability (%)” value ([1]; 100 μg/mL, day 40) was 99.5% and the “Stability (%)” value ([1]; 100 μg/mL, day 100) was 99.1%. The “Stability (%)” value ([1]; 200 μg/mL, day 0) was 100%, the “Stability (%)” value ([1]; 200 μg/mL, day 20) was 100% and the “Stability (%)” value ([1]; 200 μg/mL, day 40) was 100%. For the same compound, the “Stability (%)” value ([1]; 200 μg/mL, day 100) was 100%, the “Median survival of mice” value [2] was greater than 40 weeks and the Proteinuria [3] was “less important and appears lately”. For the same compound, the “Peripheral hypercellularity (leucocytes in peripheral blood)” value [4] was “decrease peripheral hypercellularity”, the Rmax ([5]; BIAcore, 25° C., 1:1 Langmuir model) was 39 RU and the KA [5, 6] was 524000 M⁻¹. The kd [5, 6] was 0.0022 s⁻¹, the RI ([5]; peptide 1.56 μM) was 14 RU and the Req ([5]; peptide 1.56 μM) was 17.6 RU. It also gave a kobs ([5]; peptide 1.56 μM) of 0.004 s⁻¹, an RI ([5]; peptide 3.12 μM) of 18.7 RU and a Req ([5]; peptide 3.12 μM) of 242 RU. For the same compound, the kobs ([5]; peptide 3.12 μM) was 0.0058 s⁻¹, the RI ([5]; peptide 6.25 μM) was 25.9 RU and the Req ([5]; peptide 6.25 μM) was 29.9 RU. The kobs ([5]; peptide 6.25 μM) was 0.0094 s⁻¹, the RI ([5]; peptide 12.5 μM) was 36.9 RU and the Req ([5]; peptide 12.5 μM) was 33.9 RU. The kobs ([5]; peptide 12.5 μM) was 0.0166 s⁻¹, the RI ([5]; peptide 25 μM) was 53.4 RU and the Req ([5]; peptide 25 μM) was 36.3 RU. For the same compound, the kobs ([5]; peptide 25 μM) was 0.031 s⁻¹.
